According to article PMC6003237 (Bioorganic & medicinal chemistry, 2017):
pIC50: −log10 of the molar value. Values joined by “and” are separate entries in the source; they are usually repeats but may differ in a detail not shown here. Equal values may be shown once. Read-outs that look alike come from different tables or passages of the source. *1 amine or outer side, *2 acyl side, *3 side chain or, on linkers, in order; H or OH if unused. Where a SMILES comes first, the peptide text is derived from it. [ ]: non-standard residue; d: D form. The star is where a group is joined. Emetine(N2') = CC[C@H]1CN2CCc3cc(OC)c(OC)cc3[C@@H]2C[C@@H]1C[C@@H]1c2cc(OC)c(OC)cc2CCN1*; PABC = O=C(OCc1ccc(N[*:1])cc1)[*:2]

Columns and labels:
[1] = biological target: Purified native human prostate specific antigen (PSA) (Homo sapiens, UniProt P07288); assay: PSA-mediated hydrolysis of prodrug ex-vivo; assay type: biochemical
Sequence of Purified native human prostate specific antigen (PSA) (P07288 25-261): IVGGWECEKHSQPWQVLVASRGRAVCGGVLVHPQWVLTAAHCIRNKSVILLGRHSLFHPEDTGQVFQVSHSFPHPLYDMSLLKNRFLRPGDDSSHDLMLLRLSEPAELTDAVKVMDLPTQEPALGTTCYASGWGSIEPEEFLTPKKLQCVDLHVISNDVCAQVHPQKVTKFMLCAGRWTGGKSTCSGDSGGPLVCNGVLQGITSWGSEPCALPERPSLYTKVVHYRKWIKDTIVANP

[2] = system: LNCaP; assay: MTT cytotoxicity in PSA producing LNCaP cells; assay type: cell-based, human
[3] = system: CWR22Rv1; assay: MTT cytotoxicity in low PSA-producing CWR22Rv1 cells; assay type: cell-based, human
[4] = system: PC3; assay: MTT cytotoxicity in non-PSA-producing PC3 cells; assay type: cell-based, human
[5] = Stability / hydrolysis in 10% FBS
[6] = human, 200 µM
[7] = PBS
[8] = system: mice; settings: for MTD (nmol injected): mice of average body weight 25 g; for dose producing acute toxicity (convulsions and death) / dose producing acute toxicity (convulsions and death), nmol: single IV injection
[9] = Hydrolysis in LNCaP conditioned media; settings: serum containing LNCaP conditioned media, 37 °C, 24–72 h
[10] = system: different cancer cell lines; settings: cited from earlier work
[11] = system: PC-3 xenografts; settings: dose of 8 mg/kg, earlier studies, ref not given; cited from earlier work
[12] = system: NCI 60 cancer cell screen; settings: ref not given; cited from earlier work
[13] = Stability in human plasma; assay type: in vitro ADME; settings: 48 h
[14] = system: DPPIV; settings: activation by DPPIV; ref [9]; cited from earlier work
[15] = system: mice; settings: earlier studies of the authors, ref not given; cited from earlier work

Q: Which results are given for `CC[C@H]1CN2CCc3cc(OC)c(OC)cc3[C@@H]2C[C@@H]1C[C@@H]1c2cc(OC)c(OC)cc2CCN1C(=O)OCc1ccc(NC(=O)[C@H](CC(C)C)NC(=O)[C@H](CO)NC(=O)[C@H](CCC(N)=O)NC(=O)[C@H](CC(C)C)NC(=O)[C@H](CCCCN)NC(=O)[C@H](CO)NC(=O)[C@H](CO)NC(=O)[C@H](Cc2c[nH]cn2)NC(C)=O)cc1` [compound 16] (Ac-HSSKLQSL[PABC]-{Emetine(N2')})?
A: % of 14 observed after incubation with PSA (LCMS) ([1]; purified PSA, 2 h): 20%; % of 14 observed after incubation with PSA (LCMS) ([1]; purified PSA, 6 h): 50%; % of 14 observed after incubation with PSA (LCMS) ([1]; purified PSA, 20 h): 98%; IC50 fold higher than the IC50 of emetine ([2]; LNCaP): about 2 fold; IC50 fold higher than the IC50 of emetine [3]: about 2 fold

Q: With `CC[C@H]1CN2CCc3cc(OC)c(OC)cc3[C@@H]2C[C@@H]1C[C@@H]1c2cc(OC)c(OC)cc2CCN1C(=O)OCc1ccc(NC(=O)[C@H](CC(C)C)NC(=O)[C@@H](N)CO)cc1` [compound 14, 4-((S)-2-((S)-2-Amino-3-hydroxypropanamido)-4-methyl-pentanamido) benzyl (R)-1-(((2R,3R,11bS)-3-ethyl-9,10-dimethoxy-1,3,4,6,7,11b-hexahydro-2H-pyrido[2,1-a]isoquinolin-2-yl)methyl)-6,7-dimethoxy-3,4-dihydroisoquinoline-2(1H)-carboxylate] as the compound, how does the “% Emetine after 72 h incubation” value ([1]; Purified PSA, 37 °C, 72 h) read?
A: 0.0%

Q: And the “hydrolysis / conversion to emetine on incubation with purified PSA (LCMS)” value ([1]; purified PSA, 37 °C, 24–72 h)?
A: not observed

Q: What about the “cytotoxicity compared to emetine” value [4] of the same compound?
A: comparable to emetine

Q: And the pIC50 ([4]; Homo sapiens, PC-3, 72 h)?
A: > 7.00

Q: And the “hydrolysis to emetine or any product (LCMS)” value ([5]; 10% FBS containing media, 37 °C, 24–72 h)?
A: did not result in its hydrolysis to emetine or any product of hydrolysis

Q: What about the “% Ser-Leu-PABC-Emetine, 14 after 72 h incubation” value [6] of the same compound?
A: 100%

Q: What about the “cytotoxicity compared to emetine” value [2] of the same compound?
A: comparable to emetine

Q: And the pIC50 ([2]; Homo sapiens, LNCaP, 72 h)?
A: > 7.00

Q: And the “hydrolysis to emetine or any product (LCMS)” value ([7]; 37 °C, 24–72 h)?
A: did not result in its hydrolysis to emetine or any product of hydrolysis

Q: What about the “% Emetine after 72 h incubation” value ([7]; 37 °C, 72 h) of the same compound?
A: 0.0%

Q: And the “% Ser-Leu-PABC-Emetine, 14 after 72 h incubation” value ([7]; 37 °C, 72 h)?
A: 100%

Q: And the “Effects/observations at higher doses” value ([8]; IV injection, mice)?
A: Toxic effect was observed at higher doses

Q: And the “MTD (nmol injected)” value ([8]; IV injection)?
A: 1541 nmol

Q: What about the “hydrolysis to emetine or any product (LCMS)” value [9] of the same compound?
A: did not result in its hydrolysis to emetine or any product of hydrolysis

Q: For `CC[C@H]1CN2CCc3cc(OC)c(OC)cc3[C@@H]2C[C@@H]1C[C@@H]1c2cc(OC)c(OC)cc2CCN1C(=O)CCC(=O)O` [compound 22], which “in vitro cytotoxicity compared to emetine” value [10] is on record?
A: much less toxic in vitro compared to emetine

Q: What about the “Effects/observations at higher doses” value ([8]; IV injection, mice) of the same compound?
A: No remarkable behavior. Mice remained alive

Q: What about the “MTD (nmol injected)” value ([8]; IV injection) of the same compound?
A: > 4305 nmol

Q: For `CC[C@H]1CN2CCc3cc(OC)c(OC)cc3[C@@H]2C[C@@H]1C[C@@H]1c2cc(OC)c(OC)cc2CCN1C(=O)/C=C(/C)C(=O)O` [compound 19], which “in vitro cytotoxicity compared to emetine” value [10] is on record?
A: much less toxic in vitro compared to emetine

Q: And the “Effects/observations at higher doses” value ([8]; IV injection, mice)?
A: No remarkable behavior even at higher doses. Mice remained alive

Q: What about the “MTD (nmol injected)” value ([8]; IV injection) of the same compound?
A: > 4218 nmol

Q: For `CC[C@H]1CN2CCc3cc(OC)c(OC)cc3[C@@H]2C[C@@H]1C[C@@H]1c2cc(OC)c(OC)cc2CCN1C(=S)[S-].[Na+]` [compound 18], which “in vitro cytotoxicity compared to emetine” value ([10]; cancer cell lines, ref [6]–[9]) is on record?
A: much less toxic in vitro compared to emetine

Q: And the “Effects/observations at higher doses” value ([8]; IV injection, mice)?
A: No remarkable behavior even at higher doses. Mice remained alive

Q: What about the “MTD (nmol injected)” value ([8]; IV injection) of the same compound?
A: > 4320 nmol

Q: With `CC[C@H]1CN2CCc3cc(OC)c(OC)cc3[C@@H]2C[C@@H]1C[C@@H]1c2cc(OC)c(OC)cc2CCN1C(=O)/C=C(/CC(=O)O)C(=O)O` [compound 20] as the compound, how does the “in vitro cytotoxicity compared to emetine” value [10] read?
A: much less toxic in vitro compared to emetine

Q: And the “Effects/observations at higher doses” value ([8]; IV injection, mice)?
A: No remarkable behavior even at higher doses. Mice remained alive

Q: What about the “MTD (nmol injected)” value ([8]; IV injection) of the same compound?
A: > 3926 nmol

Q: With `CC[C@H]1CN2CCc3cc(OC)c(OC)cc3[C@@H]2C[C@@H]1C[C@@H]1c2cc(OC)c(OC)cc2CCN1C(=O)OCc1ccc([N+](=O)[O-])cc1` [compound 25] as the compound, how does the “fold less cytotoxic than emetine in vitro” value ([10]; different cancer cell lines, ref [6]–[9]) read?
A: about 200 fold

Q: And the “Effects/observations at higher doses” value ([8]; IV injection, mice)?
A: No remarkable behavior, no sign of toxicity. Mice remained alive

Q: And the “dose without any observable sign of toxicity” value ([8]; IV injection, mice)?
A: 64 mg/kg

Q: And the “dose without any observable sign of toxicity, nmol” value ([8]; IV injection, mice)?
A: 2425 nmol

Q: And the “MTD (nmol injected)” value ([8]; IV injection)?
A: > 2425 nmol

Q: Which “concentration at which significant cytotoxicity was demonstrated” value ([4]; PC3 (Fig. 3B)) does the source give for `CC[C@@H]1C[C@@H](C[C@@H]2c3cc(OC)c(OC)cc3CCN2C(=O)OCc2ccc(NC(=O)[C@H](CC(C)C)NC(=O)[C@H](CO)NC(C)=O)cc2)[C@H]2c3cc(OC)c(OC)cc3CCN2C1` [compound 15, 4-((S)-2-((S)-2-Acetamido-3-hydroxypropanamido)-4-methyl-pentanamido) benzyl (R)-1-(((2R,3R,11bS)-3-ethyl-9,10-dimethoxy-1,3,4,6,7,11b-hexahydro-2H-pyrido[2,1-a]isoquinolin-2-yl)methyl)-6,7-dimethoxy-3,4-dihydroisoquinoline-2(1H)-carboxylate] here?
A: 10,000 nM

Q: What about the “concentration at which significant cytotoxicity was demonstrated” value ([2]; LNCaP (Fig. 3A)) of the same compound?
A: 10,000 nM

Q: With `CC[C@H]1CN2CCc3cc(OC)c(OC)cc3[C@@H]2C[C@@H]1C[C@@H]1c2cc(OC)c(OC)cc2CCN1C(=O)OCc1ccc(NC(=O)[C@@H]2CCCN2C(=O)[C@H](C)NC(=O)[C@@H]2CCCN2C(=O)[C@H](C)NC(C)=O)cc1` [compound 24] (Ac-APAP[PABC]-{Emetine(N2')}) as the compound, how does the “Effects/observations at higher doses” value ([8]; IV injection, mice) read?
A: Intermittent convulsion started 1 min post injection of 33 mg/kg dose (818 nmol). Death occurred after about 8 min

Q: What about the “dose producing acute toxicity (convulsions and death)” value ([8]; mice) of the same compound?
A: 33 mg/kg

Q: And the “dose producing acute toxicity (convulsions and death), nmol” value ([8]; mice)?
A: 818 nmol

Q: What does the source list for `CC[C@H]1CN2CCc3cc(OC)c(OC)cc3[C@@H]2C[C@@H]1C[C@H]1NCCc2cc(OC)c(OC)cc21` [Emetine, emetine, reference compound]?
A: therapeutic efficacy [11]: no therapeutic efficacy; GI50 [12]: 27 nM; Effects/observations at higher doses ([8]; IV injection, mice): Convulsion and death within 1 min of injection at 16 mg/kg; MTD (nmol injected) ([8]; IV injection): 416 nmol; dose producing acute toxicity (convulsions and death) ([8]; mice): 16 mg/kg

Q: What does the source list for `CC[C@H]1CN2CCc3cc(OC)c(OC)cc3[C@@H]2C[C@@H]1C[C@@H]1c2cc(OC)c(OC)cc2CCN1C(=S)Nc1ccccc1` [compound 26]?
A: in vitro cytotoxicity compared to emetine ([10]; cancer cell lines, ref [6]–[9]): less cytotoxic in vitro than emetine; dose without any observable sign of toxicity ([8]; male, Balb/c, mouse, in vivo, iv): up to 100 mg/kg

Q: Which results are given for `CC[C@H]1CN2CCc3cc(OC)c(OC)cc3[C@@H]2C[C@@H]1C[C@@H]1c2cc(OC)c(OC)cc2CCN1C(=O)[C@@H]1CCCN1C(=O)[C@H](C)N` [compound 23]?
A: in vitro cytotoxicity compared to 10 ([10]; in vitro cytotoxicity assays, ref [9]): significantly less active; Effects/observations at higher doses ([8]; IV injection, mice): Convulsion and death within 1 min of injection at 16 mg/kg (617 nmol); dose producing acute toxicity (convulsions and death) ([8]; mice): 16 mg/kg; dose producing acute toxicity (convulsions and death), nmol ([8]; mice): 617 nmol

Q: Which results are given for `CC[C@H]1CN2CCc3cc(OC)c(OC)cc3[C@@H]2C[C@@H]1C[C@@H]1c2cc(OC)c(OC)cc2CCN1C(=O)OCc1ccc(NC(=O)[C@H](CC(C)C)NC(=O)[C@H](CO)NC(=O)[C@H](CCC(N)=O)NC(=O)[C@H](CC(C)C)NC(=O)[C@H](CCCCN)NC(=O)[C@H](CO)NC(=O)[C@H](CO)NC(=O)[C@H](Cc2cnc[nH]2)NC(C)=O)cc1` [compound 16] (Ac-HSSKLQSL[PABC]-{Emetine(N2')})?
A: times less cytotoxic in non-PSA producing cells than in PSA producing cells ([4]; PC3 vs CWR22Rv1 and LNCaP, from IC50): 7–9 times; stability (cleavage, hydrolysis/decomposition) ([5]; 10% FBS, five-day incubation at 37 °C): no sign of cleavage or any form of hydrolysis/decomposition was detectable; stability in human plasma (detection of 14 or emetine) [13]: Neither precursor 14 nor emetine was detected; stability (cleavage, hydrolysis/decomposition) ([7]; five-day incubation at 37 °C): no sign of cleavage or any form of hydrolysis/decomposition was detectable; observation at the MTD ([8]; 25 mg/kg (402 nmol) IV): acute distress followed by recovery within an hour of injection; Effects/observations at higher doses ([8]; IV injection, mice): Convulsion started about 1 min post injection at higher doses; MTD (nmol injected) ([8]; IV injection): 402 nmol; dose producing acute toxicity (convulsions and death) ([8]; mice): 50 mg/kg; dose producing acute toxicity (convulsions and death), nmol ([8]; mice): 804 nmol

Q: With `CC[C@H]1CN2CCc3cc(OC)c(OC)cc3[C@@H]2C[C@@H]1C[C@@H]1c2cc(OC)c(OC)cc2CCN1C(=O)OCc1ccc(NC(=O)[C@@H]2CCCN2C(=O)[C@H](C)N)cc1` [compound 10, 4-((S)-1-(L-Alanyl)pyrrolidine-2-carboxamido)benzyl (R)-1-(((2R,3R,11bS)-3-ethyl-9,10-dimethoxy-1,3,4,6,7,11b-hexahydro-2H-pyrido[2,1-a]isoquinolin-2-yl)methyl)-6,7-dimethoxy-3,4-dihydroisoquinoline-2(1H)-carboxylate] as the compound, how does the “time for efficient quantitative release of emetine” value [14] read?
A: ≤ 24 h

Q: What about the “in vitro cytotoxicity compared to emetine” value ([10]; cancer cell lines, ref [6]–[9]) of the same compound?
A: equipotency with emetine

Q: What about the “Effects/observations at higher doses” value ([8]; IV injection, mice) of the same compound?
A: Convulsion and death at higher doses

Q: What about the “MTD (nmol injected)” value ([8]; IV injection) of the same compound?
A: 1003 nmol and 1002 nmol

Q: With `CC[C@H]1CN2CCc3cc(OC)c(OC)cc3[C@@H]2C[C@@H]1C[C@@H]1c2cc(OC)c(OC)cc2CCN1C(=O)/C(C)=C(/C)C(=O)O` [compound 21] as the compound, how does the lethal dose [15] read?
A: 32 mg/kg

Q: And the “Effects/observations at higher doses” value ([8]; IV injection, mice)?
A: 32 mg/kg (1318 nmol) is toxic like emetine
